Source: PubChem BioAssay (NCI)
Several values for one entry are separate records, joined by “and”; a condition that tells them apart may be missing. Identical values can stand only once.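 Grown in 96-well plates, cells were treated for 48 hours with each compound at five concentrations. Insufficient inhibition: endpoint recorded as highest concentration tested. The concentration for 50% growth inhibition is given as GI50. TGI: total growth inhibition.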

Experiments:
Assay in all cases: inhibition of tumour cell growth, NCI panel, 48 h
A549 NSCLC = tested on: A549 NSCLC
IGROV1 ovarian = tested on: IGROV1 ovarian
NCI-H522 lung = tested on: NCI-H522 lung
HL-60(TB) leukemia = tested on: HL-60(TB) leukemia
HCT-116 colon = tested on: HCT-116 colon
EKVX NSCLC = tested on: EKVX NSCLC
SW-620 colon = tested on: SW-620 colon
TK-10 renal = tested on: TK-10 renal
HS 578T breast = tested on: HS 578T breast
T-47D breast = tested on: T-47D breast

Compound | TGI (A549 NSCLC) | TGI (IGROV1 ovarian) | TGI (NCI-H522 lung) | TGI (HL-60(TB) leukemia) | TGI (HCT-116 colon) [µM] | TGI (EKVX NSCLC) | TGI (SW-620 colon) [µM] | GI50 (A549 NSCLC) [µM] | GI50 (IGROV1 ovarian) [µM] | GI50 (NCI-H522 lung) [µM] | GI50 (HL-60(TB) leukemia) [µM] | GI50 (TK-10 renal) [µM] | TGI (TK-10 renal) | GI50 (EKVX NSCLC) [µM] | TGI (HS 578T breast) [µM] | TGI (T-47D breast) [µM] | GI50 (HS 578T breast) [µM] | GI50 (HCT-116 colon) [µM] | GI50 (T-47D breast) [µM] | GI50 (SW-620 colon) [µM]
CCn1c2ccccc2c(=O)c2c(OC)ccc(OC)c21 | > 100 µM | > 100 µM | > 93.8 µM | > 82.4 µM | > 100 | > 100 µM | > 100 |  |  |  |  |  |  |  |  |  |  |  |  | 
O=[N+]([O-])c1ccc(C(Cl)C(Cl)c2ccc(C(Cl)C(Cl)c3ccc([N+](=O)[O-])cc3[N+](=O)[O-])cc2)c([N+](=O)[O-])c1 (stereo not given) | 5.04 µM and 4.46 µM | 11.4 µM and 8.68 µM | 2.36 µM and 0.447 µM |  | 1.75 | 6.18 µM and 2.49 µM | 1.69 | 0.362 | 0.571 | 0.183 | 0.132 | 0.536 | 14.5 µM and 2.5 µM | 0.559 |  |  |  |  |  | 
CCCCNS(=O)(=O)c1n[nH]c(=O)[nH]c1=O | > 100 µM | > 100 µM | > 100 µM | > 100 µM | > 100 | > 100 µM | > 100 |  |  |  |  |  |  |  | > 100 | > 100 |  |  |  | 
Cc1ccc(/C=C(\NC(=O)c2ccccc2)c2nc3ccccc3[nH]2)cc1 | > 100 µM | > 100 µM | > 100 µM | 56.8 µM | > 100 | > 100 µM | > 100 |  |  |  |  |  | > 100 µM |  |  |  |  |  |  | 
CCC1C(C(=O)Nc2ccccc2C)=C(C)NC(C)=C1c1ccccc1C (stereo not given) | > 100 µM | > 100 µM | > 100 µM | 31.5 µM | > 77.6 | > 100 µM | > 59.9 |  |  |  |  |  | > 100 µM |  |  |  |  |  |  | 
C[C@@H](NS(=O)(=O)c1ccc(NC(=O)c2ccccc2)cc1)C(=O)O | > 100 µM | > 100 µM | > 100 µM | > 100 µM |  | > 100 µM | > 100 |  |  |  |  |  | > 100 µM |  |  |  |  |  |  | 
COC(=O)c1ncc2c(=O)[nH]c3ccccc3c2c1C(=O)OC | > 100 µM | > 100 µM |  | > 100 µM | > 100 | > 100 µM | > 100 |  |  |  |  |  | > 100 µM |  |  |  |  |  |  | 
C=C1C(=O)O[C@H]2[C@H](OC(C)=O)[C@@H](C)CCCC3(C)OC3CCC3(CO3)[C@H](O)C[C@@H]12 (stereo not given in full) | 74.8 µM | 38.7 µM | 28.7 µM |  | 13.1 | 30.3 µM | 19.6 | 19.8 | 13.9 | 9.6 |  | 7.39 | 21.2 µM | 12.1 | 43.4 | 62.5 | 11.8 | 3.7 | 13.7 | 5.16
N#CC(C#N)=C1CCOc2ccc(F)cc21 | > 100 µM | 57 µM | > 100 µM | > 100 µM | 21 | 9.3 µM | > 100 | 26 | 17.4 | > 100 | 66.5 | 14.1 | 33.3 µM |  | 41.6 |  | 0.289 | 8.86 |  | 29.6
COc1cc(CNCCN2C(=O)c3ccc4c5c(ccc(c35)C2=O)C(=O)N(CCNCc2cc(OC)c(OC)c(OC)c2)C4=O)cc(OC)c1OC |  | 1.89 µM | 0.496 µM |  | 0.428 |  |  |  | 0.296 | 0.123 |  | 0.78 | 1.51 µM |  |  | 0.718 |  | 0.136 | 0.189 | 
CCN(CC)CC(C)C(=O)/C=C/c1ccc(C)cc1 (stereo not given) | 13.4 µM | 4.86 µM |  | 14.4 µM | 3.16 | 26.8 µM | 2.96 |  |  |  |  |  | 3.69 µM |  |  |  |  |  |  | 
NS(=O)(=O)c1ccc(NC(=O)Cc2nc3ccccc3s2)cc1 | 37.9 µM | 29.9 µM | 33.2 µM | 45.7 µM | 31 | 37.2 µM | 31.7 |  |  |  |  |  | 44.9 µM |  |  |  |  |  |  | 
CC(C)(C)c1cc(CCCCCCCC2(CCCCCCCc3cc(C(C)(C)C)cc(C(C)(C)C)c3)OC(COCCOCCCCCC#N)C(COCCOCCCCCC#N)O2)cc(C(C)(C)C)c1 (stereo not given) | > 100 µM | > 100 µM | > 100 µM | > 100 µM | > 100 | > 100 µM | > 100 |  |  |  |  |  | > 100 µM |  |  |  |  |  |  | 
COc1cccc(-c2cc(=O)c3cc(N4CCOCC4)ccc3[nH]2)c1 | > 100 µM | > 100 µM | 0.0395 µM and 0.0852 µM | 0.0593 µM and 0.0492 µM |  | > 100 µM | > 100 | 0.225 | 0.145 | 0.0209 |  | 4.84 | > 100 µM | 0.0608 | 0.055 |  |  | 0.0371 |  | 0.0125
NC1CCCCC1N.O=C1C=C/C(=C(/c2ccc(O)c(Br)c2)c2ccccc2S(=O)(=O)[O-])C=C1Br.O=C1C=C/C(=C(/c2ccc(O)c(Br)c2)c2ccccc2S(=O)(=O)[O-])C=C1Br.[Pt+4] | > 100 µM | > 100 µM | 22.6 µM | > 100 µM | > 100 | > 100 µM | 52.2 | 2.42 | 4.17 | 1.9 | 1.43 | 57.2 | > 100 µM | 93 |  |  |  | 0.79 |  | 0.578
Cc1ccc(S(=O)(=O)N2CCN(C=S)CC2)cc1 | > 100 µM | > 100 µM | > 100 µM | > 100 µM | > 100 | > 100 µM | > 100 |  |  |  |  |  | > 100 µM |  |  |  |  |  |  | 
C=CC(=O)NC(N)=NC#N | 345 µM | 330 µM | 36.9 µM and 4.09 µM | > 66.3 µM and 327 µM | 329 |  | 314 |  |  | 1.95 | 132 |  | 272 µM |  |  |  |  |  |  | 160
N#CC1=C(N)NC(=S)NC12Nc1ccccc1S2 (stereo not given) | > 100 µM | > 100 µM | 70.5 µM | 79.2 µM | > 100 | 37.9 µM | > 100 | 37.7 | 23.3 | 21.3 | 33.6 | 41.5 | > 100 µM | 3.71 |  | > 100 |  | > 100 | 29.9 | 36.7
O=C(CCc1ccccc1)NS(=O)(=O)c1ccccc1 | > 100 µM | > 100 µM | > 100 µM | > 100 µM | > 100 | > 100 µM | > 100 |  |  |  |  |  | > 100 µM |  |  |  |  |  |  | 
CSc1nc2nn(Cc3ccccc3)cc2c(=O)[nH]1 | > 100 µM | > 100 µM | > 100 µM | > 100 µM | > 100 | > 100 µM | > 100 |  |  |  |  |  | > 100 µM |  |  |  |  |  |  | 
